Four compounds from patent publication US4621090A, “Antifungal compositions” (Toyo Soda Manufacturing Co., Ltd., priority 1983, dated 1986) can be followed below.

The test system of data set [1] is Trichophyton mentagraphytes MTU-19024. In words: Minimum inhibitory concentration, anti-Trichophyton mentagraphytes activity test, strain MTU-19024. The data set is classed as cell-based. As to conditions: Trichophyton, MTU19024, Sabouraud's dextrose agar, 27° C., a week. The protocol:
(§1) The activity was tested by the 10 time-step dilution test, using the Sabouraud's dextrose agar culture medium (2% dextrose, 1% pepton and 1.5% agar; pH 6.5±). A platinum loopful (about 10 μl) spore suspension (prepared from a reserved strain of Trichlophyton mentagraphytes and containing 1×10^6 cells/ml) was applied in the form of drawn lines on a plate of a culture medium containing the active ingredients. The culture medium plate was kept at 27° C. for a week and then visually observed to see if any colonies had formed. The minimum inhibitory concentration was defined as the minimum concentration with which formation of distinct colonies on the culture medium plate was not observed.

Data set [2] has as its system Trichophyton mentagraphytes MTU-19031. Briefly: Minimum inhibitory concentration, anti-Trichophyton mentagraphytes activity test, strain MTU-19031. The data set is classed as cell-based. As to conditions: Trichophyton, MTU19031, Sabouraud's dextrose agar, 27° C., a week. As for the experimental part: as §1
The test system of data set [3] is Trichophyton violaceum MTU-19021. In words: Growth inhibition test. The note with it: read-out: Minimum inhibitory concentration. The data set is classed as cell-based.
Data set [4] deals with Microsporum canis MTU-20010. Briefly: Growth inhibition test. The data set is classed as cell-based. As to conditions: read-out: Minimum inhibitory concentration.
The subject of data set [5] is Microsporum gypseum MTU-20005. In words: Growth inhibition test. The class given is cell-based. The note with it: Nannizzia gypsea, read-out: Minimum inhibitory concentration.
Data set [6] concerns Epidermophyton floccosum MTU-21007. In words: Growth inhibition test. The data set is classed as cell-based. As to conditions: MTU21007, 336 h, read-out: Minimum inhibitory concentration.
In data set [7] the test system is Fonsecaea compactum MTU-22023. In words: Growth inhibition test. The class given is cell-based. As to conditions: Fonsecaea compacta, read-out: Minimum inhibitory concentration.
For data set [8], the system named is Phialophora verrucosa MTU-23001. In words: Growth inhibition test. The data set is classed as cell-based. The note with it: read-out: Minimum inhibitory concentration.
The subject of data set [9] is Histoplasma capsulatum MTU-16001. Briefly: microbe, parasite or virus in culture. The data set is classed as cell-based. The note with it: MTU16001, 336 h, read-out: Minimum inhibitory concentration.
In data set [10] the test system is Blastomyces dermatitidis MTU-17009. Briefly: Growth inhibition test. The data set is classed as cell-based. The note with it: MTU17009, 336 h, read-out: Minimum inhibitory concentration.
The test system of data set [11] is Aspergillus fumigatus MTU-06002. Briefly: Growth inhibition test. The class given is cell-based. The note with it: MTU06002, 168 h, read-out: Minimum inhibitory concentration.
The subject of data set [12] is Aspergillus niger MTU-06051. In words: Growth inhibition test. The class given is cell-based. As to conditions: read-out: Minimum inhibitory concentration.
The test system of data set [13] is Fusarium pedrosoi MTU-22009. Briefly: Growth inhibition test. The class given is cell-based. As to conditions: MTU22009, 168 h, after 7 days cultivation at 27° C., read-out: Minimum inhibitory concentration.
For data set [14], the system named is Cryptococcus neoformans MTU-13002. Briefly: Growth inhibition test. As to conditions: MTU13002, 48 h, read-out: Minimum inhibitory concentration. The data set is classed as cell-based.
Data set [15] concerns ICR mice. In words: Acute toxicity test using ICR mice. The class given is in vivo. As for the experimental part:
The acute toxicity was tested by applying active ingredients of the antifungal compositions of this invention as shown in Table 4 to ICR mice (male, age-5 weeks, 25 g ±weight, 5 mice in each group). Observation continued for 3 more weeks starting from the last administration.

For data set [16], the system named is ICR mice. In words: Skin irritation test using ICR mice. The class given is in vivo. The note with it: Cutaneous, 1% direct application once a day for 14 consecutive days.
The test system of data set [17] is Trichophyton mentagraphytes. In words: Medical treatment of guinea pigs experimentally infected with Trichophyton mentagraphytes. As to conditions: 1% emulsion once a day; for Scope of symptoms (0-4): mean of 6 guinea pigs; for Reversed cultivation: skin cut into 10 pieces, cultivated 14 days at 27° C.
Setting [18] is: MTU19021, 168 h, after 7 days cultivation at 27° C.
Where [19] appears, read: MTU19021, 336 h, after 14 days cultivation at 27° C.
Where [20] appears, read: MTU20010, 168 h, after 7 days cultivation at 27° C.
The mark [21] stands for this setting: MTU20010, 336 h, after 14 days cultivation at 27° C.
Where [22] appears, read: MTU20005, 168 h, after 7 days cultivation at 27° C.
Setting [23] is: MTU20005, 336 h, after 14 days cultivation at 27° C.
The mark [24] stands for this setting: after 14 days cultivation at 27° C.
The mark [25] stands for this setting: Intraperitoneal, 100 mg/kg once a day for 6 consecutive days.
Setting [26] is: Intraperitoneal, 500 mg/kg once.
Where [27] appears, read: Oral, 500 mg/kg once a day for 6 consecutive days.

Each structure is given as a SMILES string. Values after ≈ are worked out from the molar mass of the structure shown. Read-outs that look alike come from different tables or passages of the source.

As for `COc1cccc(N(C)C(=S)Oc2ccc3ccccc3c2)n1` [compound 7, O--2-Naphthyl N--methyl-N--(6-methoxy-2-pyridyl)thiocarbamate], the MIC in [1], in data set [2], in data set [3] (setting [18]), in data set [3] (setting [19]), in data set [4] (setting [20]) and in [4] (setting [21]) was 0.05 µg/mL (≈ 0.154 µM) throughout. The MIC was 0.05 µg/mL (≈ 0.154 µM) in [5] (setting [22]); 0.05 µg/mL (≈ 0.154 µM) in data set [5] (setting [23]); 0.05 µg/mL (≈ 0.154 µM) in data set [6] (setting [24]); 0.5 µg/mL (≈ 1.54 µM) in [7] (MTU22023, 168 h, after 7 days cultivation at 27° C.); 0.5 µg/mL (≈ 1.54 µM) in [7] (MTU22023, 336 h, after 14 days cultivation at 27° C.); 0.5 µg/mL (≈ 1.54 µM) in data set [8] (MTU23001, 168 h, after 7 days cultivation at 27° C.). Further, the MIC stood at 0.5 µg/mL (≈ 1.54 µM) in [8] (MTU23001, 336 h, after 14 days cultivation at 27° C.); 0.5 µg/mL (≈ 1.54 µM) in data set [9]; 0.5 µg/mL (≈ 1.54 µM) in data set [10] (setting [24]); 0.5 µg/mL (≈ 1.54 µM) in data set [11] (after 7 days cultivation at 27° C.); 0.05 µg/mL (≈ 0.154 µM) in data set [12] (MTU06051, 168 h, after 7 days cultivation at 27° C.); 0.05 µg/mL (≈ 0.154 µM) in [12] (MTU06051, 336 h, after 14 days cultivation at 27° C.). Moreover, the results for the MIC in [13] and in data set [14] (after 2 days cultivation at 27° C.) were 0.5 µg/mL (≈ 1.54 µM) and 0.05 µg/mL (≈ 0.154 µM), respectively. Besides, the Number of deaths in data set [15] (setting [25]), in [15] (setting [26]) and in [15] (setting [27]) was 0 throughout. Also, the “Number of symptomatic weight decrease” value in [15] (setting [25]), in data set [15] (setting [26]) and in data set [15] (setting [27]) was 0 throughout. Besides, the “Number of skin irritation symptoms” value in data set [16] came to 0. For the same compound, the “Scope of symptoms (0-4)” value in [17] (5 days after the infection) was determined as 0; in data set [17] (9 days after the infection), 1.33; in data set [17] (13 days after the infection), 1.66; in [17] (17 days after the infection) it was 0.66; in data set [17] (21 days after the infection) it was 0.33. For the same compound, in [17], the Reversed cultivation was 1/60.

As for `COc1cccc(N(C)C(=S)Oc2ccc3c(c2)CCCC3)n1` [compound 11, O--5,6,7,8-Tetrahydro-2-naphthyl N--N--(6-methoxy-2-pyridyl)-N--methylthiocarbamate], the MIC amounted to 0.05 µg/mL (≈ 0.152 µM) in data set [1]; 0.05 µg/mL (≈ 0.152 µM) in [2]; 0.05 µg/mL (≈ 0.152 µM) in data set [3] (MTU19021, 168 h); 0.05 µg/mL (≈ 0.152 µM) in [3] (MTU19021, 336 h); 0.05 µg/mL (≈ 0.152 µM) in data set [4] (MTU20010, 168 h); 0.05 µg/mL (≈ 0.152 µM) in [4] (MTU20010, 336 h). Moreover, the MIC amounted to 0.5 µg/mL (≈ 1.52 µM) in [5] (MTU20005, 168 h); 0.05 µg/mL (≈ 0.152 µM) in data set [5] (MTU20005, 336 h); 0.05 µg/mL (≈ 0.152 µM) in [6]; 0.5 µg/mL (≈ 1.52 µM) in data set [7] (MTU22023, 168 h); 0.5 µg/mL (≈ 1.52 µM) in data set [7] (MTU22023, 336 h); 0.5 µg/mL (≈ 1.52 µM) in data set [8] (MTU23001, 168 h). The MIC was 0.5 µg/mL (≈ 1.52 µM) in data set [8] (MTU23001, 336 h); 0.5 µg/mL (≈ 1.52 µM) in data set [9]; 0.5 µg/mL (≈ 1.52 µM) in data set [10]; 0.5 µg/mL (≈ 1.52 µM) in [11]; 0.05 µg/mL (≈ 0.152 µM) in data set [12] (MTU06051, 168 h); 0.05 µg/mL (≈ 0.152 µM) in data set [12] (MTU06051, 336 h). The MIC in data set [14] came to 0.5 µg/mL (≈ 1.52 µM). Further, the Number of deaths in data set [15] (setting [25]), in [15] (setting [26]) and in [15] (setting [27]) was 0 in each case. Besides, the “Number of symptomatic weight decrease” value in [15] (setting [25]), in data set [15] (setting [26]) and in [15] (setting [27]) was 0 each time. Also, in data set [16], the “Number of skin irritation symptoms” value came to 0. Moreover, the “Scope of symptoms (0-4)” value was found to be 0.66 in [17] (5 days after the infection); 2.0 in data set [17] (9 days after the infection); 2.0 in data set [17] (13 days after the infection); 0 in [17] (17 days after the infection); 0 in data set [17] (21 days after the infection). In data set [17], the Reversed cultivation was 1/60.

In the case of `COc1cccc(N(C)C(=S)Oc2cccc(C(C)(C)C)c2)n1` [compound 28, O--3-t-Butylphenyl N--(6-methoxy-2-pyridyl)-N--methylthiocarbamate], the MIC in data set [1], in data set [2], in data set [3] (setting [18]), in [3] (setting [19]), in data set [4] (setting [20]) and in [4] (setting [21]) was 0.5 µg/mL (≈ 1.51 µM) in each case. For the same compound, the MIC in data set [5] (setting [22]), in data set [5] (setting [23]) and in [6] (setting [24]) was 0.5 µg/mL (≈ 1.51 µM) throughout.

Regarding `COc1cccc(N(C)C(=S)Oc2cccc(C(C)C)c2)n1` [compound 48, O--3-Isopropylphenyl N--(6-methoxy-2-pyridyl)-N--methylthiocarbamate], the MIC in data set [1], in data set [2], in [3] (setting [18]), in [3] (setting [19]), in [4] (setting [20]) and in data set [4] (setting [21]) was 0.5 µg/mL (≈ 1.58 µM) in each case. Further, the MIC in data set [5] (setting [22]), in data set [5] (setting [23]) and in [6] (setting [24]) was 0.5 µg/mL (≈ 1.58 µM) each time.
